Test [1] concerns the target BIKE (amino acids S38-E345) (K320A, K321A) (Homo sapiens (Human), UniProt Q9NSY1, K320A/K321A). Briefly: BIKE pSENs assay. Format: biochemical. As to the method:
The recombinant proteins were independently expressed in Esherichia coli BL21(DE3) cells cultured in Luria-Bertani (LB) medium until OD600 reached 0.6-0.8, then cooled to 15° C., and supplemented with 0.5 mM isopropyl 1-thio-D-galactopyranoside (IPTG) induce protein expression 16 h. Cells were harvested and resuspended in lysis buffer (50 mM HEPES pH 7.5, 500 mM NaCl, 5 mM imidazole, 5% glycerol, 0.5 mM Tris (2-carboxyethyl) phosphine (TCEP), cOmplete Protease Inhibitor Tablet (Roche)) and lysed by microfluidics high pressure homogenizer (UH-06, Union-Biotech). Proteins were purified using Ni-Affinity chromatography (His FF column, Bestchrom) and eluted stepwise in binding buffer with 20-300 mM imidazole. Removal of the hexahistidine tag was performed at 4° C. overnight using recombinant TEV protease and reacted with BirA to obtain the corresponding biotinylated-AAK1. BIKE or GAK proteins. Further separated in the reverse Strep column (Strep-Tactin® XT, IBA). The Biotin elution sample was collected containing untagged biotinylated protein was then purified by Ion-exchange chromatography (Mono Q 10/100 GL, Cytiva) and Size-exclusion chromatography (HiLoad 16/600 Superdex 200 pg, Cytiva). The pure protein was stored in a storage buffer 50 mM HEPES (pH 7.5), 300 mM NaCl, 5% glycerol at −80° C. Protein were characterized by SDS-PAGE. LC-MS and aSEC.
BIKE protein was dissolved at 20 nM in 1× enzyme solution (50 mM HEPES pH7.5, 10 mM MgCl2, 1 mM DTT, 1% glycerol, 0.5 mM EGTA, 0.01% Briji35, 0.02% BSA) and 12.5 ul was incubated with 250 nl DMSO or 250 nl compound in DMSO at 25° C. for 15 min. The reaction was started by addition of 12.5 ul of 30 uM AQT0759 (Assayquant, CSKS-AQT0759B) and 40 uM ATP which were diluted in 1× substrate dilution buffer (50 mM HEPES pH7.5, 10 mM MgCl2. 1 mM DTT, 1% glycerol, 0.5 mM EGTA, 0.01% Briji35).

In test [2] the target is GAK (amino acids Q25-N335) (Homo sapiens (Human), UniProt O14976). Briefly: GAK pSENs assay. Format: biochemical.
Sequence of GAK (amino acids Q25-N335) (O14976 25-335): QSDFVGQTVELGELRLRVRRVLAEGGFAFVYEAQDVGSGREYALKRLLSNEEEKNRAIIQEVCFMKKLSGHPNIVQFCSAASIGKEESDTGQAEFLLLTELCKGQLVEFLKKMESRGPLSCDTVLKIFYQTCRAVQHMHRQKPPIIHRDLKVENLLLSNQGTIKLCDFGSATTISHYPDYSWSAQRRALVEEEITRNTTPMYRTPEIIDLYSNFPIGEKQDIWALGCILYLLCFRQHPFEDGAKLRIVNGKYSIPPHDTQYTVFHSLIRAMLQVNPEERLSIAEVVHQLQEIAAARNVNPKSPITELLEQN
For test [3], the target named is AAK1 (amino acids T27-A365) (Homo sapiens (Human), UniProt Q2M2I8). Briefly: AAK1 pSENs assay. Format: biochemical. The following applies: for AAK1:GAK pSENs Selectivity: ratio of AAK1 pSENs activity to GAK pSENs activity; for IC50: read-out: AAK1 pSENs:EIC50. The essentials: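 Untagged, biotinylated E. coli-expressed AAK1 at 20 nM preincubated with compound 15 min at 25° C in HEPES pH 7.5 buffer with 10 mM MgCl2 and 1 mM DTT. Reaction started with AQT0759 and ATP, added as 30 uM and 70 uM solutions in equal volume.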
Sequence of AAK1 (amino acids T27-A365) (Q2M2I8 27-365): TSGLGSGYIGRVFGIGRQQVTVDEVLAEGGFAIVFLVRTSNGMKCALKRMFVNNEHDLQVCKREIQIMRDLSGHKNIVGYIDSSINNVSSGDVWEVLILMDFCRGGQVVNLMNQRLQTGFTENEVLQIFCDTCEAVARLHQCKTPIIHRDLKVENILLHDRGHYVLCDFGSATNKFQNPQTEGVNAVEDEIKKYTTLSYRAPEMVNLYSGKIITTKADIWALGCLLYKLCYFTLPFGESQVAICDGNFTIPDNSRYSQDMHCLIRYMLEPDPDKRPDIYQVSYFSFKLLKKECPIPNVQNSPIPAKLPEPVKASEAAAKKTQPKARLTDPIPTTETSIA

For a further test, the target named is AAK1 (Homo sapiens (Human), UniProt Q2M2I8). Briefly: pAP2M1 cell-based assay (In-Cell Western). The following applies: Hela cells co-transfected with AP2M1 and AAK1, 3 hr treatment, Phospho-AP2M1 (Thr156). The source says: pAP2M1 Cell-Based Assay (In-Cell Western):
The plate was read on Licor Odyssey CLx imaging system (LICOR) to acquire fluorescence intensity at 700 channel and 800 channel.
Data analysis: Fluorescence intensity at 700 channel served as internal standard and 800 channel were normalized with 700 channel.

SMILES strings stand for the structures. Where only a bound is given, the exact number is not on record here.

Sequence of BIKE (amino acids S38-E345) (K320A, K321A) (Q9NSY1 38-345 K320A/K321A): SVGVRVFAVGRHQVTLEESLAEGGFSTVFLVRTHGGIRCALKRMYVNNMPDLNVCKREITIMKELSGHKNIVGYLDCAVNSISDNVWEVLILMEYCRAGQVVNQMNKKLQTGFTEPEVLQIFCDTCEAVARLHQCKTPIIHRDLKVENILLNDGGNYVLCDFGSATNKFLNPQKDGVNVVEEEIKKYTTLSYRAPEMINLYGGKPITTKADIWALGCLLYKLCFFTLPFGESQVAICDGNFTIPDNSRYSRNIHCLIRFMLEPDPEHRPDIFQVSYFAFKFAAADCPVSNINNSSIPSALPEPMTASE
Sequence of AAK1 (Q2M2I8 whole entry): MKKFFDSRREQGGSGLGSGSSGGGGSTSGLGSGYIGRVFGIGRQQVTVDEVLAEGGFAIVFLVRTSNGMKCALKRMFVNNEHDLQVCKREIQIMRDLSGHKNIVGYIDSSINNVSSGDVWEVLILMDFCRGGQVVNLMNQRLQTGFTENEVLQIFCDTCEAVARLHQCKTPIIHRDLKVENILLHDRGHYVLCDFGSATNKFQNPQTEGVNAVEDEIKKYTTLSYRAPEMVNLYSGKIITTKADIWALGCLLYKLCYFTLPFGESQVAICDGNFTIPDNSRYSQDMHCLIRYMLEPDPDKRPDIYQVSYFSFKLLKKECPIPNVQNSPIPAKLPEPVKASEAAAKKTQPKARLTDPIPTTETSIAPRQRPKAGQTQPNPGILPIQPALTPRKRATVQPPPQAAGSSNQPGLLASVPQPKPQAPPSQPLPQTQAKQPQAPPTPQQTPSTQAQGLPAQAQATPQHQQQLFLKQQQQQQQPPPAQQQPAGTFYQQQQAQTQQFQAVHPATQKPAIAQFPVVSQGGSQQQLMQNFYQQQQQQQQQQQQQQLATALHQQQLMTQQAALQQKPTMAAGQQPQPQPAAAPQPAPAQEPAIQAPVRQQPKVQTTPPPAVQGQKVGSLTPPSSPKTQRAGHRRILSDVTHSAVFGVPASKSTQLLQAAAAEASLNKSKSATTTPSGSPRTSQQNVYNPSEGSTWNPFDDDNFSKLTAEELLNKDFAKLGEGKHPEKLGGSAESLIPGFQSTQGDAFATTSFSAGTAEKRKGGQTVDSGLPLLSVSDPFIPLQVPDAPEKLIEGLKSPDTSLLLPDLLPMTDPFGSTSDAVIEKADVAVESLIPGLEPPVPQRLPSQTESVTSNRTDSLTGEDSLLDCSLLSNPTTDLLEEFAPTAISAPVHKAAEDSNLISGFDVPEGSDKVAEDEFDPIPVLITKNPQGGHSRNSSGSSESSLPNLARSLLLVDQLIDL

For `C[C@]1(OC(=O)N2CCN(c3ccn4ncc(-c5cccnc5OC5CC5)c4n3)CC2)CCNC1` (single isomer, unassigned) [Compound I-13], the IC50 fell in the range of 1 to 50 nM in test [1], 51 to 150 nM in test [2], 1 to 50 nM in test [3] and 1 to 50 nM against AAK1. Further, the “AAK1:GAK pSENs Selectivity” value in test [3] is on record as “B (B: 0.016-0.075)”.

On to `O=C1C[C@H](OC(=O)N2CCN(c3ccn4ncc(-c5cccnc5OC5CNC5)c4n3)CC2)CN1` [Compound I-43, [(3S)-5-Oxopyrrolidin-3-yl]4-[3-[2-(azetidin-3-yloxy)-3-pyridyl]pyrazolo[1,5-a]pyrimidin-5-yl]piperazine-1-carboxylate], for which the IC50 (in test [1]; in test [2]; in test [3]; on AAK1) was > 1500 nM throughout. Further, the “AAK1:GAK pSENs Selectivity” value in test [3] is given as “D (D: 0.16-1.00)”.

For `COC(=O)N1CC(Oc2ncccc2-c2cnn3ccc(N4CCN(C(=O)O[C@@H]5CC(=O)N(C6COC6)C5)CC4)nc23)C1` [Compound I-85, [(3R)-1-(oxetan-3-yl)-5-oxo-pyrrolidin-3-yl]-4-[3-[2-(1-methoxycarbonylazetidin-3-yl)oxy-3-pyridyl]pyrazolo[1,5-a]pyrimidin-5-yl]piperazine-1-carboxylate], the IC50 in test [1] and in test [2] was > 1500 nM throughout. In addition, the “AAK1:GAK pSENs Selectivity” value in test [3] is listed as “C (C: 0.076-0.15)”.

Take `Cc1nn2ccc(N3CCN(C(=O)O[C@H]4CC(=O)N(C)C4)CC3)nc2c1-c1cccnc1OC1CC1` [Compound I-108, [(3S)-1-methyl-5-oxo-pyrrolidin-3-yl]-4-[3-[2-(cyclopropoxy)-3-pyridyl]-2-methyl-pyrazolo[1,5-a]pyrimidin-5-yl]piperazine-1-carboxylate]: the IC50 in test [1] and in test [2] was > 1500 nM each time. Moreover, the “AAK1:GAK pSENs Selectivity” value in test [3] is recorded as “E (E: >1.00)”.

For the compound `CN1C[C@@H](OC(=O)N2CCN(c3nc4c(-c5cccnc5OC5CC5)cnn4cc3O)CC2)CC1=O` [Compound I-110, [(3S)-1-methyl-5-oxo-pyrrolidin-3-yl]-4-[3-[2-(cyclopropoxy)-3-pyridyl]-6-hydroxy-pyrazolo[1,5-a]pyrimidin-5-yl]piperazine-1-carboxylate], the IC50 in test [1] and in test [2] was > 1500 nM throughout. Moreover, the “AAK1:GAK pSENs Selectivity” value in test [3] is “E (E: >1.00)”.

`COc1cn2ncc(-c3cccnc3OC3CC3)c2nc1N1CCN(C(=O)O[C@H]2CC(=O)N(C)C2)CC1` [Compound I-110-9, [(3S)-1-methyl-5-oxo-pyrrolidin-3-yl]-4-[3-[2-(cyclopropoxy)-3-pyridyl]-6-methoxy-pyrazolo[1,5-a]pyrimidin-5-yl]piperazine-1-carboxylate]: the IC50 in test [1] and in test [2] was > 1500 nM each time. The “AAK1:GAK pSENs Selectivity” value in test [3] was “E (E: >1.00)”.

Turning to `Cc1cn2ncc(-c3cccnc3OC3CC3)c2nc1N1CCN(C(=O)O[C@H]2CC(=O)N(C)C2)CC1` [Compound I-111, [(3S)-1-methyl-5-oxo-pyrrolidin-3-yl]-4-[3-[2-(cyclopropoxy)-3-pyridyl]-6-methyl-pyrazolo[1,5-a]pyrimidin-5-yl]piperazine-1-carboxylate], the IC50 in test [1] and in test [2] was > 1500 nM throughout. Also, the “AAK1:GAK pSENs Selectivity” value in test [3] is “C (C: 0.076-0.15)”.

`CN1C[C@@H](OC(=O)N2CCN(c3nc4c(-c5cccnc5OC5CCCCC5)cnn4cc3F)CC2)CC1=O` [Compound I-123, [(3S)-1-methyl-5-oxo-pyrrolidin-3-yl]-4-[3-[2-(cyclohexoxy)-3-pyridyl]-6-fluoro-pyrazolo[1,5-a]pyrimidin-5-yl]piperazine-1-carboxylate]: the IC50 in test [1] and in test [2] was > 1500 nM each time. In addition, the “AAK1:GAK pSENs Selectivity” value in test [3] was “C (C: 0.076-0.15)”.

The values are drawn from US20250270222A1, “AP2 ASSOCIATED KINASE 1 INHIBITORS AND USES THEREOF” (Satellos Bioscience Inc., priority 2023, published 2025).
